From PMC12271471, “Direct synthesis of mycophenolic acid aryl esters with antioxidant and antiproliferative properties” (Scientific Reports, 2025)

What was measured:
[1] = DPPH radical scavenging test (colorimetric); settings: concentration scavenging 50% of DPPH radicals; 10 min, room temperature, 517 nm; mean ± SD
Protocol: Antioxidative properties of the obtained MPA derivatives were assessed chemically using a colorimetric DPPH test. The IC50 value represents the scavenging activity, defined as the concentration of a compound required to scavenge 50% of DPPH radicals.
Briefly, 400 µL solution of each synthesized compound with different concentrations (20–1000 µg/mL) was added to 1.6 mL DPPH solution (100 µmol/L). After shaking, the mixture was incubated at room temperature in the dark for 10 min, and then the absorbance was measured at 517 nm. The %Scavenging activity was calculated by using the formula: […]
The scavenging activity was expressed as IC50 value, defined as the concentration (mM) of compound required for scavenging DPPH radicals by 50%. IC50 values were determined by linear regression analysis using at least three different concentrations in duplicate.
Three different concentrations were prepared for each sample, while each one was analyzed in duplicate. […] The statistical analysis was performed using Tukey’s HSD test (p < 0.05). The statistical software Statistica 10 software (StatSoft Inc., Tulsa, OK, USA) was implemented for this analysis.

[2] = tested on: T-Jurkat cells; assay: VPD450 proliferation test (flow cytometry) on T-Jurkat cells; assay type: cell-based, human; settings: for EC50: Homo sapiens, T-Jurkat, 48 h, mean ± SD; for SI selectivity index T-Jurkat (IC50/EC50): ratio between IC50 (XTT) and EC50 (VPD450) on T-Jurkat cell line; for IS internal selectivity (EC50 PBMCs / EC50 T-Jurkat): ratio between VPD450 EC50 values for PBMCs and T-Jurkat cell line
Protocol: These values indicate the concentration of any compound at which proliferation of PBMCs (healthy cells), and T-Jurkat cells (T-cell leukemia), is inhibited by 50% compared to the control. Cells were treated with the compounds for 72 h (PBMCs) or 48 h (T-Jurkat), followed by a […] VPD450 test. The results are presented in ESI Fig. S3 as proliferation curves concerning concentration.
ESI Figure 3. Concentration-dependent change in proliferation under the treatment of ester derivatives of MPA. (A) VPD450-labelled PBMCs were cultured in the presence of different concentrations (100; 50; 25; 10; 1; 0.1, and 0.01 μM) of MPA, MMF, and ester derivatives, and stimulated with magnetic beads coated with anti-CD3 and anti-CD28 antibodies for 72 hours. (B) VPD450-labelled T-Jurkat cells were cultured in the presence of different concentrations (100; 10; 1; 0.1 and 0.01 μM) of MPA and ester derivatives for 48 hours. The plots were separated based on the type of ester derivative (P or MP). Cell proliferation was analyzed using flow cytometry. The results are expressed […]
(1 picture or pasted object on this page, not shown here) […]
inhibited cell viability by more than 50%. Each experiment was conducted in triplicate, and the final […]
VPD450 dye-based in vitro cell proliferation test
PBMCs and T-Jurkat cells were washed twice with warm PBS (37°C), re-suspended in fresh PBS at a final concentration of 10-30∙10^6 cells/ml, and labelled with 1 µl of VPD450 (BD Biosciences) at 37°C for 15 minutes, with vortexing every 5 minutes to ensure uniform staining. Subsequently, cells were washed with PBS, then with the complete medium (X-VIVO20 for PBMCs and RPMI-1640 for T-Jurkat cells), next re-suspended in fresh complete medium and seeded into 96-well plates at a concentration of 1∙10^6 cells per well. PBMCs were additionally stimulated with magnetic beads coated with anti-CD3 and anti-CD28 antibodies (Invitrogen) at a 2:1 cell-to-bead ratio. To the experimental wells, 100 µl of the MPA derivatives were added to achieve final concentrations of 50, 25, 10, 5, 1, 0.1, and 0.01 µM. In parallel, control wells containing stained but unstimulated cells and stained, stimulated cells were prepared at the same concentration. Cell proliferation was analyzed using an LSRFortessa flow cytometer (BD Biosciences) and Kaluza C Flow Cytometry Analysis Software (Beckman Coulter). […]
Statistical analysis was conducted using GraphPad Prism 9 (GraphPad Software Inc).
Differences between MMF, MPA and its new derivatives were assessed using a two-tailed unpaired Student’s t-test, with statistical significance defined as p < 0.05. EC50 and IC50 values were determined by fitting data to a four-parameter non-linear regression model in GraphPad Prism 9. Statistical significance was evaluated using the t-test.

SMILES	IC50 [1] [µM]	EC50 [2] [µM]	IS internal selectivity (EC50 PBMCs / EC50 T-Jurkat) [2]	SI selectivity index T-Jurkat (IC50/EC50) [2]
COc1cc(C=O)cc(OC)c1OC(=O)CC/C(C)=C/Cc1c(O)c2c(c(C)c1OC)COC2=O [MP3]	12200 ± 252	4.458 ± 0.04	3.083	0.997
COc1ccccc1OC(=O)CC/C(C)=C/Cc1c(O)c2c(c(C)c1OC)COC2=O [MP1]	23800 ± 411	0.78 ± 0.034	1.418	1.259
COc1c(C)c2c(c(O)c1C/C=C(\C)CCC(=O)O)C(=O)OC2 [MPA, Mycophenolic acid]	15730 ± 144	0.924 ± 0.034	1.249	0.570
COc1c(C)c2c(c(O)c1C/C=C(\C)CCC(=O)OCCN1CCOCC1)C(=O)OC2 [MMF, mycophenolate mofetil, reference compound]	19000 ± 279	0.609 ± 0.03	1.704	1.216
COc1c(C)c2c(c(O)c1C/C=C(\C)CCC(=O)Oc1ccc3c(c1)OCO3)C(=O)OC2 [P1]	43570 ± 380	2.01 ± 0.042	0.573	0.533
C/C=C/c1ccc(OC(=O)CC/C(C)=C/Cc2c(O)c3c(c(C)c2OC)COC3=O)c(OC)c1 [MP9]	373 ± 41	1.84 ± 0.043	1.283	1.070
C=CCc1ccc(OC(=O)CC/C(C)=C/Cc2c(O)c3c(c(C)c2OC)COC3=O)c(OC)c1 [MP8]	6900 ± 225	1.74 ± 0.023	0.665	0.983
COc1c(C)c2c(c(O)c1C/C=C(\C)CCC(=O)Oc1ccc(CCC(C)=O)cc1)C(=O)OC2 [P7]	124	2.23 ± 0.044	0.470	1.083

The remaining compounds from weak to strong by IC50 [1], led by results:

IC50 [1] [µM]	EC50 [2] [µM]	IS internal selectivity (EC50 PBMCs / EC50 T-Jurkat) [2]	SMILES	SI selectivity index T-Jurkat (IC50/EC50) [2]
28200 ± 357	2.357 ± 0.023	0.703	COc1c(C)c2c(c(O)c1C/C=C(\C)CCC(=O)Oc1ccc(C=O)cc1)C(=O)OC2 [P5]	0.671
11670 ± 113	4.477 ± 0.033	0.317	COc1c(C)c2c(c(O)c1C/C=C(\C)CCC(=O)Oc1cc(C)ccc1C(C)C)C(=O)OC2 [P2]	0.552
6400 ± 311	7.509 ± 0.036	0.386	COc1cc(C=O)ccc1OC(=O)CC/C(C)=C/Cc1c(O)c2c(c(C)c1OC)COC2=O [MP4]	0.710
3720 ± 230	2.64 ± 0.035	2.042	COc1cccc(OC)c1OC(=O)CC/C(C)=C/Cc1c(O)c2c(c(C)c1OC)COC2=O [MP2]	0.662
3640 ± 113	4.923 ± 0.034	1.571	COC(=O)/C=C/c1ccc(OC(=O)CC/C(C)=C/Cc2c(O)c3c(c(C)c2OC)COC3=O)c(OC)c1 [MP7]	0.286
308 ± 31	3.53 ± 0.045	1.380	COC(=O)/C=C/c1ccccc1OC(=O)CC/C(C)=C/Cc1c(O)c2c(c(C)c1OC)COC2=O [P4]	0.470
